# Measured values as given in the supplement of paper PMC10307832.
# Legend:
# Test in all cases: relative viability (nuclei count vs DMSO), 5 days (fraction); higher = more cells survive
# BEN = system: BEN
# Outline: (§1)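 For relative viability, nuclei counts in treated wells were divided by those in vehicle wells. Lung cancer cell lines had been pin-tool dosed in 1536-well plates the day after seeding and cultured for 5 days, then fixed and stained in one step (final 0.05% Triton X-100, 1% formaldehyde, 1 ug/ml Hoechst) and imaged at 4×. Doses were one drug alone or a fixed anchor-drug dose plus five library-drug doses (not always all listed) in √10 steps, and values are duplicate-plate medians.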
# ChaGo-K-1 = system: ChaGo-K-1
# Outline: as §1
# HCC-78 = system: HCC-78
# Outline: as §1
# LC-2-ad = system: LC-2-ad
# Outline: as §1
# LCLC-97TM1 = system: LCLC-97TM1
# Outline: as §1
# LK-2 = system: LK-2
# Outline: as §1
# LU99A = system: LU99A
# Outline: as §1
# LXF-289 = system: LXF-289
# Outline: as §1
# NCI-H1355 = system: NCI-H1355
# Outline: as §1
# NCI-H1651 = system: NCI-H1651
# Outline: as §1
# NCI-H1666 = system: NCI-H1666
# Outline: as §1
# NCI-H1944 = system: NCI-H1944
# Outline: as §1
# NCI-H1975 = system: NCI-H1975
# Outline: as §1
# NCI-H2087 = system: NCI-H2087
# Outline: as §1
# NCI-H2342 = system: NCI-H2342
# Outline: as §1
# NCI-H358 = system: NCI-H358
# Outline: as §1
# NCI-H596 = system: NCI-H596
# Outline: as §1
# NCI-H650 = system: NCI-H650
# Outline: as §1
# NCI-H661 = system: NCI-H661
# Outline: as §1
# NCI-H838 = system: NCI-H838
# Outline: as §1
# PC-3 [JPC-3] = system: PC-3 [JPC-3]
# Outline: as §1
# SK-MES-1 = system: SK-MES-1
# Outline: as §1
smiles,measurement,setting,value
COc1cc2nccc(Oc3ccc(NC(=O)Nc4cc(C)on4)c(Cl)c3)c2cc1OC [Tivozanib] + Nc1nc2[nH]cc(CCc3ccc(C(=O)N[C@@H](CCC(=O)O)C(=O)O)cc3)c2c(=O)[nH]1 [Pemetrexed] (partner 0.2 µM),relative viability,BEN; first compound 0.005 µM,0.647
same,relative viability,BEN; first compound 0.01581 µM,0.858
same,relative viability,BEN; first compound 0.05 µM,0.834
same,relative viability,BEN; first compound 0.1581 µM,0.397
same,relative viability,BEN; first compound 0.5 µM,0.689
same,relative viability,ChaGo-K-1; first compound 0.005 µM,0.235
same,relative viability,ChaGo-K-1; first compound 0.01581 µM,0.271
same,relative viability,ChaGo-K-1; first compound 0.05 µM,0.253
same,relative viability,ChaGo-K-1; first compound 0.1581 µM,0.273
same,relative viability,ChaGo-K-1; first compound 0.5 µM,0.264
same,relative viability,HCC-78; first compound 0.005 µM,0.925
same,relative viability,HCC-78; first compound 0.01581 µM,0.924
same,relative viability,HCC-78; first compound 0.05 µM,0.816
same,relative viability,HCC-78; first compound 0.1581 µM,0.885
same,relative viability,HCC-78; first compound 0.5 µM,0.913
same,relative viability,LC-2-ad; first compound 0.005 µM,0.245
same,relative viability,LC-2-ad; first compound 0.01581 µM,0.289
same,relative viability,LC-2-ad; first compound 0.05 µM,0.274
same,relative viability,LC-2-ad; first compound 0.1581 µM,0.286
same,relative viability,LC-2-ad; first compound 0.5 µM,0.245
same,relative viability,LCLC-97TM1; first compound 0.005 µM,0.183
same,relative viability,LCLC-97TM1; first compound 0.01581 µM,0.178
same,relative viability,LCLC-97TM1; first compound 0.05 µM,0.157
same,relative viability,LCLC-97TM1; first compound 0.1581 µM,0.172
same,relative viability,LCLC-97TM1; first compound 0.5 µM,0.148
same,relative viability,LK-2; first compound 0.005 µM,0.254
same,relative viability,LK-2; first compound 0.01581 µM,0.258
same,relative viability,LK-2; first compound 0.05 µM,0.289
same,relative viability,LK-2; first compound 0.1581 µM,0.203
same,relative viability,LK-2; first compound 0.5 µM,0.197
same,relative viability,LU99A; first compound 0.005 µM,0.161
same,relative viability,LU99A; first compound 0.01581 µM,0.176
same,relative viability,LU99A; first compound 0.05 µM,0.19
same,relative viability,LU99A; first compound 0.1581 µM,0.22
same,relative viability,LU99A; first compound 0.5 µM,0.193
same,relative viability,LXF-289; first compound 0.005 µM,0.853
same,relative viability,LXF-289; first compound 0.01581 µM,0.9
same,relative viability,LXF-289; first compound 0.05 µM,0.929
same,relative viability,LXF-289; first compound 0.1581 µM,1.04
same,relative viability,LXF-289; first compound 0.5 µM,0.887
same,relative viability,NCI-H1355; first compound 0.005 µM,1.03
same,relative viability,NCI-H1355; first compound 0.01581 µM,1.01
same,relative viability,NCI-H1355; first compound 0.05 µM,1.04
same,relative viability,NCI-H1355; first compound 0.1581 µM,0.763
same,relative viability,NCI-H1355; first compound 0.5 µM,1.07
same,relative viability,NCI-H1651; first compound 0.005 µM,0.54
same,relative viability,NCI-H1651; first compound 0.01581 µM,0.52
same,relative viability,NCI-H1651; first compound 0.05 µM,0.683
same,relative viability,NCI-H1651; first compound 0.1581 µM,0.421
same,relative viability,NCI-H1651; first compound 0.5 µM,0.574
same,relative viability,NCI-H1666; first compound 0.005 µM,0.829
same,relative viability,NCI-H1666; first compound 0.01581 µM,0.877
same,relative viability,NCI-H1666; first compound 0.05 µM,0.932
same,relative viability,NCI-H1666; first compound 0.1581 µM,0.797
same,relative viability,NCI-H1666; first compound 0.5 µM,0.75
same,relative viability,NCI-H1944; first compound 0.005 µM,0.545
same,relative viability,NCI-H1944; first compound 0.01581 µM,0.568
same,relative viability,NCI-H1944; first compound 0.05 µM,0.652
same,relative viability,NCI-H1944; first compound 0.1581 µM,0.659
same,relative viability,NCI-H1944; first compound 0.5 µM,0.611
same,relative viability,NCI-H1975; first compound 0.005 µM,0.271
same,relative viability,NCI-H1975; first compound 0.01581 µM,0.285
same,relative viability,NCI-H1975; first compound 0.05 µM,0.283
same,relative viability,NCI-H1975; first compound 0.1581 µM,0.332
same,relative viability,NCI-H1975; first compound 0.5 µM,0.294
same,relative viability,NCI-H2087; first compound 0.005 µM,0.654
same,relative viability,NCI-H2087; first compound 0.01581 µM,0.696
same,relative viability,NCI-H2087; first compound 0.05 µM,0.66
same,relative viability,NCI-H2087; first compound 0.1581 µM,0.7
same,relative viability,NCI-H2087; first compound 0.5 µM,0.653
same,relative viability,NCI-H2342; first compound 0.005 µM,0.753
same,relative viability,NCI-H2342; first compound 0.01581 µM,0.754
same,relative viability,NCI-H2342; first compound 0.05 µM,0.802
same,relative viability,NCI-H2342; first compound 0.5 µM,0.757
same,relative viability,NCI-H358; first compound 0.005 µM,0.181
same,relative viability,NCI-H358; first compound 0.01581 µM,0.18
same,relative viability,NCI-H358; first compound 0.05 µM,0.161
same,relative viability,NCI-H358; first compound 0.1581 µM,0.175
same,relative viability,NCI-H358; first compound 0.5 µM,0.176
same,relative viability,NCI-H596; first compound 0.005 µM,0.492
same,relative viability,NCI-H596; first compound 0.01581 µM,0.502
same,relative viability,NCI-H596; first compound 0.05 µM,0.51
same,relative viability,NCI-H596; first compound 0.5 µM,0.508
same,relative viability,NCI-H650; first compound 0.005 µM,0.892
same,relative viability,NCI-H650; first compound 0.01581 µM,0.98
same,relative viability,NCI-H650; first compound 0.05 µM,0.879
same,relative viability,NCI-H650; first compound 0.1581 µM,0.679
same,relative viability,NCI-H650; first compound 0.5 µM,0.734
same,relative viability,NCI-H661; first compound 0.005 µM,0.887
same,relative viability,NCI-H661; first compound 0.01581 µM,0.928
same,relative viability,NCI-H661; first compound 0.05 µM,0.922
same,relative viability,NCI-H661; first compound 0.1581 µM,0.909
same,relative viability,NCI-H661; first compound 0.5 µM,0.854
same,relative viability,NCI-H838; first compound 0.005 µM,0.242
same,relative viability,NCI-H838; first compound 0.01581 µM,0.253
same,relative viability,NCI-H838; first compound 0.05 µM,0.252
same,relative viability,NCI-H838; first compound 0.1581 µM,0.257
same,relative viability,NCI-H838; first compound 0.5 µM,0.22
same,relative viability,PC-3 [JPC-3]; first compound 0.01581 µM,1.09
same,relative viability,PC-3 [JPC-3]; first compound 0.05 µM,1.09
same,relative viability,PC-3 [JPC-3]; first compound 0.1581 µM,1.06
same,relative viability,PC-3 [JPC-3]; first compound 0.5 µM,0.936
same,relative viability,SK-MES-1; first compound 0.005 µM,0.89
same,relative viability,SK-MES-1; first compound 0.01581 µM,0.956
same,relative viability,SK-MES-1; first compound 0.05 µM,1.13
same,relative viability,SK-MES-1; first compound 0.1581 µM,0.948
same,relative viability,SK-MES-1; first compound 0.5 µM,0.994
